Columns and labels:
[1] = tested on: HIV-1 latently infected U1 cells; test: Intracellular HIV-1 p24 by flow cytometry in U1 cells; assay type: cell-based
Experimental: (§1) The reactivation of HIV-1 from latently infected cells was determined by intracellular p24 protein expression and quantification of p24 antigen in the supernatant (ACH-2 and U1 cells), or by changes in intracellular green fluorescent protein (GFP) expression (J-Lat 10.6 cells). J-Lat ([Jordan et al., 2003]), ACH-2, or U1 cells (5 × 10^5 cells/ml) were seeded in 96-well plates and incubated with different drug concentrations for 24 h to collect the cells. The supernatant was collected after 48 h. The increase in supernatant p24 antigen levels was measured using a Lumipulse G1200 (FUJIREBIO, Tokyo, Japan). J-Lat cells (5 × 10^5 cells/ml) were placed in 48-well plates and incubated with different drug concentrations for 24 h. Intracellular p24 protein expression and GFP-positive cells were analyzed by flow cytometry.
(§2) The amount of intracellular HIV-1 p24 and the active form of caspase-3 were determined by flow cytometry, as previously described ([Matsuda et al., 2015], [2019]). In brief, ACH-2 and U1 cells (2.5 × 10^5 cells/ml) were fixed with 1% paraformaldehyde/PBS for 20 min and permeabilized with Flow Cytometry Perm Buffer (TONBO Biosciences, San Diego, CA, United States). After 5 min of incubation at room temperature, the cells were stained with FITC anti-HIV-1 p24 (24-4) monoclonal antibody (mAb; Santa Cruz Biotechnology, Dallas, TX, United States) or Alexa Fluor 647-conjugated anti-active caspase-3 (C92-605) mAb (BD Pharmingen, San Diego, CA, United States) for 30 min on ice. For T cell activation and exhaustion marker staining, PBMCs from healthy donors separated by the above density gradient centrifugation method were incubated with fixable viability stain Ghost Dye 780 (TONBO Biosciences) for 30 min on ice. The cells were then stained with Brilliant Violet 510 anti-human CD3 (UCHT1) mAb (BioLegend), FITC anti-human CD4 (RPA-T4) mAb (TONBO Biosciences), PE-Cy7 anti-human CD8a (RPA-T8) mAb (TONBO Biosciences), PerCP-Cy5.5 anti-human CD38 (HB-7) mAb (BioLegend), PE anti-human CD69 (FN50) mAb (BioLegend), or Alexa Fluor 647 anti-human CD279/PD-1 (EH12.1) mAb (BD Biosciences, San Jose, CA, United States) for 30 min on ice. Next, the cells were analyzed using BD FACSVerse (BD Biosciences). In the analysis, unstained cells were used as a negative control to set the gating for each experiment. The collected data were analyzed using FlowJo software (Tree Star, San Carlos, CA, United States).

[2] = tested on: HIV-1 latently infected ACH-2 cells; test: HIV-1 latency reversal, p24 antigen in supernatant, ACH-2 cells; assay type: cell-based; details: Human immunodeficiency virus 1, ACH-2, 48 h
Experimental: as §1

[3] = Cytotoxicity of LRAs in U937 cells; assay type: cell-based; details: human, day 7
Experimental: (§3) To determine the cytotoxicity of LRAs, A3.01, and U937 cells (5 × 10^5 cells/ml), which are the parental cells for ACH-2 and U1 cells, respectively, were cultured in the presence or absence of LRAs. After 7 days, cell viability was examined using the Cell Counting Kit-8 assay (Dojindo, Kumamoto, Japan) according to the manufacturer’s instructions. The numbers of living cells after drug treatment were measured and compared to those in untreated cells and are presented as a percentage relative to the control.

[4] = tested on: HIV-1 latently infected U1 cells; test: HIV-1 latency reversal, p24 antigen in supernatant, U1 cells; assay type: cell-based; details: Human immunodeficiency virus 1, 48 h
Experimental: as §1

[5] = Cytotoxicity of LRAs in A3.01 cells; assay type: cell-based; details: human, day 7
Experimental: as §3

[6] = tested on: HIV-1 latently infected ACH-2 cells; test: Intracellular HIV-1 p24 by flow cytometry in ACH-2 cells; assay type: cell-based
Experimental: as §1, §2

[7] = tested on: CD8+PD1+CD38+ primary T cells; test: Immune exhaustion markers, CD8+PD1+CD38+ primary T cells; assay type: cell-based, human; details: PBMCs from healthy donors, 24 h
Experimental: as §2

[8] = tested on: U1 cells; test: Active caspase-3 by flow cytometry in U1 cells; assay type: cell-based; details: 10 µM, 24 h
Experimental: as §2, with “The cells were then stained with Brilliant Violet 510 anti-human CD3 (UCHT1) mAb (BioLegend), FITC anti-human CD4 (RPA-T4) mAb (TONBO Biosciences), PE-Cy7 anti-human CD8a (RPA-T8) mAb (TONBO Biosciences), PerCP-Cy5.5 anti-human CD38 (HB-7) mAb (BioLegend), PE anti-human CD69 (FN50) mAb (BioLegend), or Alexa Fluor 647 anti-human CD279/PD-1 (EH12.1) mAb (BD Biosciences, San Jose, CA, United States) for 30 min on ice.” left out, “In the analysis, unstained cells were used as a negative control to set the gating for each experiment.” left out

[9] = tested on: U937 cells; test: Active caspase-3 by flow cytometry in U937 cells; assay type: cell-based; details: 10 μM, 24 h
[10] = tested on: J-Lat 10.6 cells; assay type: cell-based, HIV-1; details: J-Lat 10.6 cells, 24 h
Experimental: The reactivation of HIV-1 from latently infected cells was determined by intracellular p24 protein expression and quantification of p24 antigen in the supernatant (ACH-2 and U1 cells), or by changes in intracellular green fluorescent protein (GFP) expression (J-Lat 10.6 cells). […] The supernatant was collected after 48 h. The increase in supernatant p24 antigen levels was measured using a Lumipulse G1200 (FUJIREBIO, Tokyo, Japan). […] Intracellular p24 protein expression and GFP-positive cells were analyzed by flow cytometry.
Differences between groups were analyzed for statistical significance using unpaired t-tests. Statistical significance was set at p < 0.05. Statistical analyses were performed using GraphPad Prism version 8 (GraphPad Software, La Jolla, CA, United States). CompuSyn software, based on the quantitative analysis of dose-effect relationships between multiple drugs by Chou and Talalay, was utilized to determine the synergism or antagonism of drug combinations ([Chou and Talalay, 1984]). To confirm synergy, this software calculates combination index (CI) values, which further assist in determining the nature of the combination compared to single drug effects. A CI value <1 indicates synergistic effects.

[11] = tested on: HIV-1 in CD4+ T cells from HIV-1-infected individuals; test: Ex vivo reactivation, intracellular HIV-1 mRNA in primary CD4+ T cells from HIV-1-infected individuals; assay type: cell-based; details: 1 μM JQ1, 24 h, seven individuals
Experimental: Primary cells were isolated from seven HIV-1^+ individuals, and ex vivo reactivation experiments were conducted as previously described ([Matsuda et al., 2019]). In brief, peripheral blood samples were collected from HIV-1-infected participants receiving cART for at least 5 years (Table 1). All subjects maintained a low viral load (<20 copies/ml, except for occasional “blips”) during therapy. CD4^+ T cell counts in peripheral blood samples ranged from 477 to 992 cells/mm^3 (average: 631 cells/mm^3), and plasma viral loads were <20 copies/ml (except for one participant whose viral load was 22 copies/ml) as measured by quantitative PCR (qPCR; COBAS AmpliPrep/COBAS TaqMan HIV-1 Test version 2.0; Roche Diagnostics, Basel, Switzerland) at the time of study enrollment. The Ethics Committee at the National Center for Global Health and Medicine approved this study (NCGM-G-002259-00), and each patient provided written informed consent. […] The number of HIV-1 RNA copies was calculated using a standard curve obtained from serially diluted HIV-1pNL4-3 plasmid, and normalized values [HIV-1 RNA copies/input RNA (ng)] for each drug were compared to those without drug treatment. The relative increase in HIV-1 RNA levels in the presence of each drug or combination was then determined.

[12] = tested on: BALB/c mice; test: In vivo acute toxicity (24 h) in BALB/c mice
Source text: BALB/c mice were purchased from Charles River Laboratories Japan, Inc. (Yokohama, Japan). Female mice at 5 weeks of age were used for the experiments. The mice were housed and monitored in our animal research facility according to the institutional guidelines. All experimental procedures and protocols were approved by the Institutional Animal Care and Use Committee of Kumamoto University.

[13] = PMA control, concentration not given

## CCCCCCCCCC(=O)OCC1(CO)CC(=C(C)C)C(=O)O1 (centres unmarked) [HTA14-472]
[1]; 0.1 µM, 24 h
  intracellular p24-positive live cells (flow cytometry quadrant): 0.28
[1]; 1 µM, 24 h
  intracellular p24-positive live cells (flow cytometry quadrant): 0.262
[1]; 10 µM, 24 h
  intracellular p24-positive live cells (flow cytometry quadrant): 2.98
[2]
  EC50: > 10 µM
[3]
  CC50 at 7 days: > 100 µM
[4]
  EC50: > 10 µM
[5]
  CC50 at 7 days: > 100 µM
[6]; 0.1 µM, 24 h
  intracellular p24-positive live cells (flow cytometry quadrant): 0.714
[6]; 1 µM, 24 h
  intracellular p24-positive live cells (flow cytometry quadrant): 0.526
[6]; 10 µM, 24 h
  intracellular p24-positive live cells (flow cytometry quadrant): 17.4

## CCCCCCCCCC(=O)OCC1(CO)C/C(=C\CC(C(C)C)C(C)C)C(=O)O1 (centres unmarked) [YOK058E]
[1]; 0.1 µM, 24 h
  intracellular p24-positive live cells (flow cytometry quadrant): 0.208
[1]; 1 µM, 24 h
  intracellular p24-positive live cells (flow cytometry quadrant): 0.197
[1]; 10 µM, 24 h
  intracellular p24-positive live cells (flow cytometry quadrant): 13.3
[2]
  EC50: > 10 µM
[3]
  CC50 at 7 days: > 100 µM
[4]
  EC50: 8.24 µM
[5]
  CC50 at 7 days: > 100 µM
[6]; 0.1 µM, 24 h
  intracellular p24-positive live cells (flow cytometry quadrant): 0.629
[6]; 1 µM, 24 h
  intracellular p24-positive live cells (flow cytometry quadrant): 3.24
[6]; 10 µM, 24 h
  intracellular p24-positive live cells (flow cytometry quadrant): 67.2

## CC(=O)O[C@@]12C[C@@H](C)[C@@]3(O)[C@@H](C=C(CO)C[C@]4(O)C(=O)C(C)=C[C@@H]34)[C@@H]1C2(C)C [Prostratin, reference compound]
[1]; 0.1 µM, 24 h
  intracellular p24-positive live cells (flow cytometry quadrant): 0.333
[1]; 1 µM, 24 h
  intracellular p24-positive live cells (flow cytometry quadrant): 33.5
[1]; 10 µM, 24 h
  intracellular p24-positive live cells (flow cytometry quadrant): 40.7
[2]
  EC50: 0.33 µM
[3]
  CC50 at 7 days: > 100 µM
[4]
  EC50: 0.32 µM
[7]
  increase in CD8+ PD1+ CD38+ T cells: significant increase
[5]
  CC50 at 7 days: > 100 µM
[8]
  caspase-3 activation: 19.1%
[9]
  caspase-3 activation: 18.8%
[10]; GFP-positive cells
  LRA activity in the presence of 10% mouse serum versus 10% FBS: did not change
[6]; 0.1 µM, 24 h
  intracellular p24-positive live cells (flow cytometry quadrant): 4.99
[6]; 1 µM, 24 h
  intracellular p24-positive live cells (flow cytometry quadrant): 68.7
[6]; 10 µM, 24 h
  intracellular p24-positive live cells (flow cytometry quadrant): 76.7

## Cc1sc2c(c1C)C(c1ccc(Cl)cc1)=N[C@@H](CC(=O)OC(C)(C)C)c1nnc(C)n1-2 [JQ1, reference compound]
[11]
  HIV-1 mRNA compared to no drug control: 2.25 fold
[10]; 100–400 nM
  number of GFP+ cells: 12.6%

## C/C=C(/C)C(=O)O[C@H]1C(C)=C[C@]23C(=O)[C@@H](C=C(CO)[C@@H](O)[C@]12O)[C@H]1[C@@H](C[C@H]3C)C1(C)C [PEP005]
[7]
  increase in CD8+ PD1+ CD38+ T cells: significant increase
[12]; intraperitoneal
  concentration at which acute toxicity started: 300 µg/kg
[12]; intraperitoneal, 1,000 μg/kg
  survival: all tested mice died

## CCCCCCCCCCCCCC(=O)O[C@@H]1[C@@H](C)[C@@]2(O)[C@@H](C=C(CO)C[C@]3(O)C(=O)C(C)=C[C@@H]23)[C@@H]2C(C)(C)[C@]12OC(C)=O [PMA, Phorbol 12-myristate 13-acetate, reference compound]
[1]; [13]
  intracellular p24-positive live cells (flow cytometry quadrant): 42.2
[6]; [13]
  intracellular p24-positive live cells (flow cytometry quadrant): 77.8

— article PMC8010149, “A Therapeutic Strategy to Combat HIV-1 Latently Infected Cells With a Combination of Latency-Reversing Agents Containing DAG-Lactone PKC Activators” (Frontiers in Microbiology, 2021)
